Laboratory results as given in ChEMBL document CHEMBL5325414, “Novel neuroprotective pyromeconic acid derivatives with concurrent anti-Aβ deposition, anti-inflammatory, and anti-oxidation properties for treatment of Alzheimer's disease” (Eur J Med Chem, 2023).
Activity calls are given as the source filed them. No cut-off for these calls is given here.

Tests used:
[1] = Clearance in Sprague-Dawley rat at 15 mg/kg, IG; assay type: ADME, organism-based; settings: in vivo, po
[2] = Metal chelating activity assessed as compound-Mg2+ complex formation by optical shift at 50 uM in PBS buffer 7.4 by UV-vis spectrometric analysis
[3] = target: T1, Amyloid-beta precursor protein (Homo sapiens, UniProt P05067); assay: Inhibition of amyloid beta (1 to 42) (unknown origin) self aggregation assessed as disaggregation relative to control; design: concentration or dose not given beside the values; settings: concentration not given here
[4] = Metal chelating activity assessed as compound-Mn2+ complex formation by optical shift at 50 uM in PBS buffer 7.4 by UV-vis spectrometric analysis
[5] = Drug concentration in hippocampus of Sprague-Dawley rat at 15 mg/kg, IG measured after 0.25 hrs; assay type: ADME, organism-based; settings: po, read-out: Drug uptake
BV-2 [6] = assay: Effect on H2O2 induced reactive oxygen species in mouse BV-2 cells assessed as reduction of ROS generation at 10 uM by fluorescence microscopic analysis relative to control; assay type: functional; design: scale not given: the % may be the effect or the level left
[7] = Ratio of drug concentration in hippocampus to plasma of Sprague-Dawley rat at 15 mg/kg, IG measured after 2 hrs; assay type: ADME, organism-based; settings: po
[8] = target: T1, Amyloid-beta precursor protein; assay: Inhibition of amyloid beta (1 to 42) (unknown origin) self aggregation assessed as low density in amyloid fibrils compound addition at 50 uM after fibrilation for 24 hrs
Mus musculus [9] = assay: Antioxidant activity in scopolamine induced cognitive impaired mouse assessed as decrease of MDA level in cortex at 20 mg/kg; assay type: functional, organism-based
[10] = Ratio of drug concentration in hippocampus to plasma of Sprague-Dawley rat at 15 mg/kg, IG measured after 0.167 hrs; assay type: ADME, organism-based; settings: po
[11] = Acute toxicity in mouse assessed as change in body weight at 2000 mg/kg, IG administered as single dose measured after 14 days; assay type: organism-based; settings: in vivo, po, 336 h, time 14 day
Mus musculus [12] = assay: In vivo effect on HO-1 expression in scopolamine induced cognitive impaired mouse assessed as reversal of NRF2 signalling in hippocampus treated at 20 mg/kg by immunofluorescence analysis; assay type: functional, organism-based
BV-2 [13] = assay: Effect of amyloid beta (1 to 42) indued apoptosis in mouse BV-2 cells assessed as viable cells at 5 uM measured by propidium iodide staining based flow cytometric analysis (reference value: 61.29%); assay type: functional; settings: read-out: Activity
[14] = Metal chelating activity assessed as compound-Na+ complex formation by optical shift at 50 uM in PBS buffer 7.4 by UV-vis spectrometric analysis
[15] = Ratio of drug concentration in hippocampus to plasma of Sprague-Dawley rat at 15 mg/kg, IG measured after 0.25 hrs; assay type: ADME, organism-based; settings: po
[16] = Drug concentration in plasma of Sprague-Dawley rat at 15 mg/kg, IG measured after 0.25 hrs; assay type: ADME, organism-based; settings: po
BV-2 [17] = assay: Effect of amyloid beta (1 to 42) indued apoptosis in mouse BV-2 cells assessed as necrotic cells at 2.5 uM measured by propidium iodide staining based flow cytometric analysis (reference value: 5.72%); assay type: functional
[18] = Drug concentration in hippocampus of Sprague-Dawley rat at 15 mg/kg, IG measured after 4 hrs; assay type: ADME, organism-based; settings: po, read-out: Drug uptake
BV-2 [19] = assay: Effect of amyloid beta (1 to 42) indued apoptosis in mouse BV-2 cells assessed as early apoptotic cells at 5 uM measured by propidium iodide staining based flow cytometric analysis (reference value: 26.12%); assay type: functional
[20] = Ratio of drug concentration in hippocampus to plasma of Sprague-Dawley rat at 15 mg/kg, IG measured after 0.083 hrs; assay type: ADME, organism-based; settings: po
[21] = Acute toxicity in mouse assessed as histopathological change in heart at 2000 mg/kg, IG administered as single dose measured after 14 days measured by H and E staining analysis; assay type: organism-based; settings: in vivo, po, 336 h, time 14 day
BV-2 [22] = assay: Antioxidant activity in H2O2 treated mouse BV-2 cells assessed as nuclear translocation of NRF2 at 5 to 20 uM by immunofluorescence analysis; assay type: functional, cell-based; settings: dose 5-20 µM
Mus musculus [23] = assay: Neuroprotective effect in scopolamine induced cognitively impaired mouse assessed as recovery of decreased Nissl bodies in CA3 region at hippocampus at 20 mg/kg by Nissl staining analysis; assay type: functional, organism-based
[24] = target: T1, Amyloid-beta precursor protein; assay: Inhibition of Cu2+ induced of amyloid beta (1 to 42) aggregation (unknown origin)
BV-2 [25] = assay: Neuroprotective activity against amyloid beta (1 to 42) induced neurotoxicity in mouse BV-2 cells assessed as survival of cells at 2.5 uM treated for 24 hrs relative to control; assay type: functional
Mus musculus [26] = assay: Anti alzheimer activity in scopolamine induced anxiety in ICR mouse assessed as decrease in chaotic behaviour pretreated with scopolamine at 3 mg/kg, ip for 31 days followed by compound addition at 20 mg/kg, po at day 7 to 31 by morris water maze test; assay type: functional, organism-based; settings: time 25.0 day
[27] = Drug concentration in plasma of Sprague-Dawley rat at 15 mg/kg, IG measured after 2 hrs; assay type: ADME, organism-based; settings: po
[28] = Drug concentration in hippocampus of Sprague-Dawley rat at 15 mg/kg, IG measured after 2 hrs; assay type: ADME, organism-based; settings: po, read-out: Drug uptake
BV-2 [29] = assay: Effect of amyloid beta (1 to 42) indued apoptosis in mouse BV-2 cells assessed as late apoptotic cells at 5 uM measured by propidium iodide staining based flow cytometric analysis (reference value: 6.88%); assay type: functional
[30] = target: T1, Amyloid-beta precursor protein; assay: Inhibition of amyloid beta (1 to 42) (unknown origin) self aggregation at 50 uM relative to control
[31] = Acute toxicity in mouse assessed as histopathological change in brain at 2000 mg/kg, IG administered as single dose measured after 14 days measured by H and E staining analysis; assay type: organism-based; settings: in vivo, po, 336 h, time 14 day
[32] = Acute toxicity in mouse assessed as change in dietary activity at 2000 mg/kg, IG administered as single dose measured after 14 days; assay type: organism-based; settings: in vivo, po, 336 h, time 14 day
[33] = target: T1, Amyloid-beta precursor protein; assay: Inhibition of Cu2+ induced amyloid beta (1 to 42) (unknown origin) aggregation assessed as depolymerization at 50 uM for 24 hrs by TEM analysis
Mus musculus [34] = assay: Neuroprotective effect in scopolamine induced cognitively impaired mouse assessed as decrease in neuronal damage in CA1 region at hippocampus at 20 mg/kg by immunofluorescence staining analysis; assay type: functional, organism-based
Mus musculus [35] = assay: Anti alzheimer activity in scopolamine induced anxiety in ICR mouse assessed as decrease in motor trajectories pretreated with scopolamine at 3 mg/kg, ip for 31 days followed by compound addition at 20 mg/kg, po at day 7 to 31 by morris water maze test; assay type: functional, organism-based; settings: time 25.0 day
Mus musculus [36] = assay: Anti alzheimer activity in scopolamine induced anxiety in ICR mouse assessed as improved exploratory activity pretreated with scopolamine at 3 mg/kg, ip for 31 days followed by compound addition at 20 mg/kg, po at day 7 to 31; assay type: functional, organism-based; settings: time 25.0 day
BV-2 [37] = assay: Effect of amyloid beta (1 to 42) indued apoptosis in mouse BV-2 cells assessed as necrotic cells at 5 uM measured by propidium iodide staining based flow cytometric analysis (reference value: 5.72%); assay type: functional
[38] = target: Amyloid-beta precursor protein (Mus musculus) (UniProt P12023); assay: Inhibition of amyloid beta (1 to 42) in mouse BV-2 cells by measuring scavenging effect at 2.5 to 10 uM by ThT fluorescence based immunoblot analysis; assay type: cell-based; settings: dose 2.5-10 µM
[39] = Antioxidant activity by measuring oxygen radical absorbance capacity-fluorescein values; assay type: functional

T1 sequence (P05067 whole entry): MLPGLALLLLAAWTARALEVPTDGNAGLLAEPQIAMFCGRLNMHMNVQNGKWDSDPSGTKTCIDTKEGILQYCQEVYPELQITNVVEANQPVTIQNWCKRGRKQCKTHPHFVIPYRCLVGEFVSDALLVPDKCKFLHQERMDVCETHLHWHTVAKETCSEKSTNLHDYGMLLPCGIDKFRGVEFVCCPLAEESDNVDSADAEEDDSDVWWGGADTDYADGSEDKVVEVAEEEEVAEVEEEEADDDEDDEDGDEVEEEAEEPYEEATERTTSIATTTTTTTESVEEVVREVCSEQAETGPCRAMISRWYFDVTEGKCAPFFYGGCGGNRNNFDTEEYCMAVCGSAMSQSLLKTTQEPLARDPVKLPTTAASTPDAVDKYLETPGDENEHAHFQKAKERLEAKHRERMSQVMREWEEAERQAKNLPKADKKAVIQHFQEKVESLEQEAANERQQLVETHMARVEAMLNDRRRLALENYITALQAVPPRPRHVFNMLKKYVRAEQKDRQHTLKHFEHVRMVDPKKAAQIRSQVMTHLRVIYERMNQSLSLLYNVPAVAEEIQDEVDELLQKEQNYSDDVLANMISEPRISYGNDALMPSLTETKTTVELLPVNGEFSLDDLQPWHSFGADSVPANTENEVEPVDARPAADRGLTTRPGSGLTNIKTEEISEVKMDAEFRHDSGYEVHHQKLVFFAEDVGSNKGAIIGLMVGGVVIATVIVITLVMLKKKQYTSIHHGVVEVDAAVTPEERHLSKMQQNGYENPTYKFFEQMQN
Sequence of Amyloid-beta precursor protein (Mus musculus) (P12023 whole entry): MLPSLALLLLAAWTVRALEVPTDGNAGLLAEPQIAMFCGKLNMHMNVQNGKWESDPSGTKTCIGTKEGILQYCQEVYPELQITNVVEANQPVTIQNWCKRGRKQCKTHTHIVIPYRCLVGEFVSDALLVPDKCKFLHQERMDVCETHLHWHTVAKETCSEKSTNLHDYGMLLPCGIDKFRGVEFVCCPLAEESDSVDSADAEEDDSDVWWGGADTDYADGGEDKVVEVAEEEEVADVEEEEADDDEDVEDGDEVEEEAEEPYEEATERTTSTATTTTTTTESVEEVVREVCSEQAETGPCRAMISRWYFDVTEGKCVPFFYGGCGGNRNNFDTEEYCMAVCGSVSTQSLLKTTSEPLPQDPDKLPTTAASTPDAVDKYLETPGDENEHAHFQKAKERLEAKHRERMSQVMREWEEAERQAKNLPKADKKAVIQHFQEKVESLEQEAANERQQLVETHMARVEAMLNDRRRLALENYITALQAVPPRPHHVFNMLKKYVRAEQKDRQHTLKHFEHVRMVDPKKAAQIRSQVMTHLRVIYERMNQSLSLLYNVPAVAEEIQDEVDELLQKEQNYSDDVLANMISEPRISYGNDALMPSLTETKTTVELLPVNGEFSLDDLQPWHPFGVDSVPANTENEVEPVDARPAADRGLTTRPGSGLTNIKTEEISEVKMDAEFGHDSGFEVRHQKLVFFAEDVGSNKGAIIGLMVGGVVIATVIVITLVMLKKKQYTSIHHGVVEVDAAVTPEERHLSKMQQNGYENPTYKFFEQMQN

O=c1ccoc(/C=C/c2ccc(O)c(O)c2)c1O
CL/F [1]: 481 L/h/kg | Activity [2]: inactive | inhibition [3]: 90.4% | Activity [4]: inactive | concentration at 0.25 h [5]: 2.57 ng/mL | Activity (BV-2 [6]): 34.85% | Kp at 2 h [7]: 7.12 | Activity [8]: Active | Activity (Mus musculus [9]): Active | Kp at 0.167 h [10]: 0.07 | Activity [11]: Non-Toxic | Activity (Mus musculus [12]): Active | viability at 5 µM (BV-2 [13]): 77.4% | Activity [14]: inactive | Kp at 0.25 h [15]: 0.5 | concentration at 0.25 h [16]: 5.32 ng/mL | Activity (BV-2 [17]): 0.16% | concentration at 4 h [18]: 4.89 ng/mL | Activity (BV-2 [19]): 8.32% | Kp at 0.083 h [20]: 0.07 | Activity [21]: Non-Toxic | Activity (BV-2 [22]): Active | Activity (Mus musculus [23]): Active | IC50 [24]: 3.69 µM | Activity (BV-2 [25]): 56.3% | Activity (Mus musculus [26]): Active | concentration at 2 h [27]: 0.99 ng/mL | concentration at 2 h [28]: 6.37 ng/mL | Activity (BV-2 [29]): 13.4% | inhibition [30]: 80.3% | Activity [31]: Non-Toxic | Activity [32]: Non-Toxic | inhibition [33]: Active | Activity (Mus musculus [34]): Active | Activity (Mus musculus [35]): Active | Activity (Mus musculus [36]): Active | Activity (BV-2 [37]): 0.84% | inhibition [38]: Active | Activity index [39]: 2.65
